Results reported in ChEMBL document CHEMBL1201861, “Genomics of Drug Sensitity in Cancer screening data, Wellcome Trust Sanger Institute”.

Experiments:
Test in all cases: cells
NCI-H2227 = format: functional, cell-based, Homo sapiens; details: Homo sapiens, NCI-H2227;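 also: growth inhibition of the human cell line, read out with a cell viability assay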
Description: SANGER: Inhibition of human NCI-H2227 cell growth in a cell viability assay.

AGS = format: functional, cell-based, Homo sapiens; details: Homo sapiens, AGS;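 also: growth inhibition of AGS cells, determined with a cell viability assay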
Description: SANGER: Inhibition of human AGS cell growth in a cell viability assay.

Detroit 562 = format: functional, cell-based, Homo sapiens; details: Homo sapiens, Detroit 562;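 also: growth inhibition of human Detroit 562 cells, read out by a cell viability assay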
Description: SANGER: Inhibition of human Detroit562 cell growth in a cell viability assay.

OAW-42 = format: functional, cell-based, Homo sapiens; details: Homo sapiens, OAW-42;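 also: growth inhibition of OAW-42 cells, read out with a cell viability assay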
Description: SANGER: Inhibition of human OAW-42 cell growth in a cell viability assay.

UACC-893 = format: functional, cell-based, Homo sapiens; details: Homo sapiens, UACC-893
Description: SANGER: Inhibition of human UACC-893 cell growth in a cell viability assay.

UO-31 = format: functional, cell-based, Homo sapiens; details: Homo sapiens, UO-31;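 also: cell viability assay measuring inhibition of cell growth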
Description: SANGER: Inhibition of human U031 cell growth in a cell viability assay.

LU-165 = format: functional, cell-based, Homo sapiens; details: Homo sapiens, LU-165
Description: SANGER: Inhibition of human LU-165 cell growth in a cell viability assay.

Daoy = format: functional, cell-based, Homo sapiens; details: Homo sapiens, Daoy;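 also: daoy cell growth inhibition, read out as cell viability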
Description: SANGER: Inhibition of human Daoy cell growth in a cell viability assay.

EGI-1 = format: functional, cell-based, Homo sapiens; details: Homo sapiens, EGI-1;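 also: cell viability readout used to gauge growth inhibition of EGI-1 cells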
Description: SANGER: Inhibition of human EGI-1 cell growth in a cell viability assay.

RPMI-7951 = format: functional, cell-based, Homo sapiens; details: Homo sapiens, RPMI-7951
Description: SANGER: Inhibition of human RPMI-7951 cell growth in a cell viability assay.

CA46 = format: functional, cell-based, Homo sapiens; details: Homo sapiens, CA46;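 also: growth inhibition of human CA46 cells, read out by a cell viability assay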
Description: SANGER: Inhibition of human CA46 cell growth in a cell viability assay.

SK-MEL-30 = format: functional, cell-based, Homo sapiens; details: Homo sapiens, SK-MEL-30;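 also: growth inhibition of SK-MEL-30 cells, determined with a cell viability assay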
Description: SANGER: Inhibition of human SK-MEL-30 cell growth in a cell viability assay.

WSU-NHL = format: functional, cell-based, Homo sapiens; details: Homo sapiens, WSU-NHL;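 also: growth inhibition of human WSU-NHL cells, read out with a cell viability assay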
Description: SANGER: Inhibition of human WSU-NHL cell growth in a cell viability assay.

KYSE-150 cell line = format: functional, cell-based, Homo sapiens; details: Homo sapiens, KYSE-150;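 also: growth inhibition of human KYSE-150 cells, read out with a cell viability assay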
Description: SANGER: Inhibition of human KYSE-150 cell growth in a cell viability assay.

KOSC-2 = format: functional, cell-based, Homo sapiens; details: Homo sapiens, KOSC-2;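 also: growth inhibition of KOSC-2 cells, read out by a cell viability assay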
Description: SANGER: Inhibition of human KOSC-2 cell growth in a cell viability assay.

NALM-6 = format: functional, cell-based, Homo sapiens; details: Homo sapiens, NALM-6;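 also: growth inhibition of NALM-6 cells, read out with a cell viability assay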
Description: SANGER: Inhibition of human NALM-6 cell growth in a cell viability assay.

KYSE-70 cell line = format: functional, cell-based, Homo sapiens; details: Homo sapiens, KYSE-70;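 also: cell viability assay read-out, with IC50 expressing suppression of KYSE-70 cell growth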
Description: SANGER: Inhibition of human KYSE-70 cell growth in a cell viability assay.

NCI-H1573 = format: functional, cell-based, Homo sapiens; details: Homo sapiens, NCI-H1573;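 also: growth inhibition of NCI-H1573 cells, read out with a cell viability assay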
Description: SANGER: Inhibition of human NCI-H1573 cell growth in a cell viability assay.

HT55 = format: functional, cell-based, Homo sapiens; details: Homo sapiens, HT55;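 also: cell viability readout measuring growth inhibition of human HT55 cells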
Description: SANGER: Inhibition of human HT55 cell growth in a cell viability assay.

MEL-HO = format: functional, cell-based, Homo sapiens; details: Homo sapiens, MEL-HO
Description: SANGER: Inhibition of human MEL-HO cell growth in a cell viability assay.

PFSK-1 = format: functional, cell-based, Homo sapiens; details: Homo sapiens, PFSK-1;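 also: cell viability assay measuring how strongly compounds suppress growth of human PFSK-1 cells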
Description: SANGER: Inhibition of human PFSK-1 cell growth in a cell viability assay.

SCLC-21H = format: functional, cell-based, Homo sapiens; details: Homo sapiens, SCLC-21H;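 also: growth inhibition of cultured human SCLC-21H cells, read out with a cell viability assay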
Description: SANGER: Inhibition of human SCLC-21H cell growth in a cell viability assay.

SK-HEP1 = format: functional, cell-based, Homo sapiens, SK-HEP-1; details: Homo sapiens, SK-HEP1;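 also: cell viability readout used to quantify reduction in proliferation of human SK-HEP-1 cells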
Description: SANGER: Inhibition of human SK-HEP-1 cell growth in a cell viability assay.

OVCAR-3 = format: functional, cell-based, Homo sapiens; details: Homo sapiens, OVCAR-3;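 also: growth inhibition of human OVCAR-3 cells, determined by a cell viability assay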
Description: SANGER: Inhibition of human OVCAR-3 cell growth in a cell viability assay.

PC-14 = format: functional, cell-based, Homo sapiens; details: Homo sapiens, PC-14;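 also: cell viability assay measuring inhibition of PC-14 cell growth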
Description: SANGER: Inhibition of human PC-14 cell growth in a cell viability assay.

HT-1376 = format: functional, cell-based, Homo sapiens; details: Homo sapiens, HT-1376
Description: SANGER: Inhibition of human HT-1376 cell growth in a cell viability assay.

NCI-H2081 = format: functional, cell-based, Homo sapiens; details: Homo sapiens, NCI-H2081;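 also: growth inhibition of human NCI-H2081 cells, read out with a cell viability assay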
Description: SANGER: Inhibition of human NCI-H2081 cell growth in a cell viability assay.

HT1197 = format: functional, cell-based, Homo sapiens, HT-1197; details: Homo sapiens, HT1197
Description: SANGER: Inhibition of human HT-1197 cell growth in a cell viability assay.

SW1088 = format: functional, cell-based, Homo sapiens; details: Homo sapiens, SW1088;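 also: growth inhibition of human SW1088 cells, read out by a cell viability assay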
Description: SANGER: Inhibition of human SW1088 cell growth in a cell viability assay.

CAKI-1 = format: functional, cell-based, Homo sapiens; details: Homo sapiens, CAKI-1;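 also: growth inhibition of CAKI-1 cells, measured by a cell viability assay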
Description: SANGER: Inhibition of human CAKI-1 cell growth in a cell viability assay.

NCI-H1792 = format: functional, cell-based, Homo sapiens; details: Homo sapiens, NCI-H1792;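 also: growth inhibition of human NCI-H1792 cells, read out as cell viability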
Description: SANGER: Inhibition of human NCI-H1792 cell growth in a cell viability assay.

TCC-SUP = format: functional, cell-based, Homo sapiens; details: Homo sapiens, TCC-SUP;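 also: growth inhibition of TCC-SUP cells, read out with a cell viability assay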
Description: SANGER: Inhibition of human TCCSUP cell growth in a cell viability assay.

OE33 = format: functional, cell-based, Homo sapiens; details: Homo sapiens, OE33;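 also: growth inhibition of human OE33 cells, measured by a cell viability assay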
Description: SANGER: Inhibition of human OE33 cell growth in a cell viability assay.

CPC-N = format: functional, cell-based, Homo sapiens; details: Homo sapiens, CPC-N;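 also: growth inhibition of CPC-N cells, with a cell viability assay as the readout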
Description: SANGER: Inhibition of human CPC-N cell growth in a cell viability assay.

COLO-792 = format: functional, cell-based, Homo sapiens; details: Homo sapiens, COLO-792
Description: SANGER: Inhibition of human COLO-792 cell growth in a cell viability assay.

BT-20 = format: functional, cell-based, Homo sapiens; details: Homo sapiens, BT-20;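 also: cell viability assay measuring suppression of growth in human BT-20 cells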
Description: SANGER: Inhibition of human BT-20 cell growth in a cell viability assay.

SW626 = format: functional, cell-based, Homo sapiens; details: Homo sapiens, SW626;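 also: growth inhibition of SW626 cells, measured with a cell viability assay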
Description: SANGER: Inhibition of human SW626 cell growth in a cell viability assay.

ARH-77 = format: functional, cell-based, Homo sapiens; details: Homo sapiens, ARH-77;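 also: growth inhibition of ARH-77 cells, read out by a cell viability assay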
Description: SANGER: Inhibition of human ARH-77 cell growth in a cell viability assay.

BPH-1 = format: functional, cell-based, Homo sapiens; details: Homo sapiens, BPH-1;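 also: cell viability assay measuring growth inhibition of human BPH-1 cells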
Description: SANGER: Inhibition of human BPH-1 cell growth in a cell viability assay.

LC4-1 = format: functional, cell-based, Homo sapiens; details: Homo sapiens, LC4-1;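 also: growth inhibition of LC4-1 cells, read out with a cell viability assay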
Description: SANGER: Inhibition of human LC4-1 cell growth in a cell viability assay.

M14 = format: functional, cell-based, Homo sapiens; details: Homo sapiens, M14;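 also: growth inhibition of M14 cells, read out with a cell viability assay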
Description: SANGER: Inhibition of human M14 cell growth in a cell viability assay.

OVCAR-8 = format: functional, cell-based, Homo sapiens; details: Homo sapiens, OVCAR-8;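 also: growth inhibition of human OVCAR-8 cells, read out by a cell viability assay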
Description: SANGER: Inhibition of human OVCAR-8 cell growth in a cell viability assay.

LCLC-103H cell line = format: functional, cell-based, Homo sapiens; details: Homo sapiens, LCLC-103H
Description: SANGER: Inhibition of human LCLC-103H cell growth in a cell viability assay.

SCC-9 = format: functional, cell-based, Homo sapiens; details: Homo sapiens, SCC-9;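 also: Read-out is a cell viability assay, with values giving inhibition of cell growth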
Description: SANGER: Inhibition of human SCC-9 cell growth in a cell viability assay.

KYSE-520 cell line = format: functional, cell-based, Homo sapiens; details: Homo sapiens, KYSE-520;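 also: growth inhibition of human KYSE-520 cells, read out with a viability assay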
Description: SANGER: Inhibition of human KYSE-520 cell growth in a cell viability assay.

CAPAN-1 = format: functional, cell-based, Homo sapiens; details: Homo sapiens, CAPAN-1;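 also: growth suppression of CAPAN-1 cells, read out by a cell viability assay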
Description: SANGER: Inhibition of human CAPAN-1 cell growth in a cell viability assay.

SK-LU-1 = format: functional, cell-based, Homo sapiens; details: Homo sapiens, SK-LU-1;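 also: cell viability assay measuring growth inhibition of human SK-LU-1 cells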
Description: SANGER: Inhibition of human SK-LU-1 cell growth in a cell viability assay.

D-566MG = format: functional, cell-based, Homo sapiens; details: Homo sapiens, D-566MG

**Q.** Which IC50 (NCI-H2227) does the source give for `O=C(O)c1ccc(-c2c[nH]c3ncc(-c4ccccc4)cc23)cc1C1CCCC1` [GSK-650394] here?
**A.** > 16 µM

**Q.** And the IC50 (AGS)?
**A.** 8.56 µM

**Q.** What about the IC50 (Detroit 562) of the same compound?
**A.** 12.8 µM

**Q.** What about the IC50 (OAW-42) of the same compound?
**A.** > 16 µM

**Q.** And the IC50 (UACC-893)?
**A.** > 16 µM

**Q.** And the IC50 (UO-31)?
**A.** > 16 µM

**Q.** And the IC50 (LU-165)?
**A.** > 16 µM

**Q.** And the IC50 (Daoy)?
**A.** 0.515 µM

**Q.** And the IC50 (EGI-1)?
**A.** > 16 µM

**Q.** What about the IC50 (RPMI-7951) of the same compound?
**A.** > 16 µM

**Q.** What about the IC50 (CA46) of the same compound?
**A.** > 16 µM

**Q.** And the IC50 (SK-MEL-30)?
**A.** 7.97 µM

**Q.** And the IC50 (WSU-NHL)?
**A.** > 16 µM

**Q.** And the IC50 (KYSE-150 cell line)?
**A.** 10.4 µM

**Q.** And the IC50 (KOSC-2)?
**A.** > 16 µM

**Q.** What about the IC50 (NALM-6) of the same compound?
**A.** 9.73 µM

**Q.** And the IC50 (KYSE-70 cell line)?
**A.** > 16 µM

**Q.** And the IC50 (NCI-H1573)?
**A.** > 16 µM

**Q.** And the IC50 (HT55)?
**A.** > 16 µM

**Q.** And the IC50 (MEL-HO)?
**A.** > 16 µM

**Q.** What about the IC50 (PFSK-1) of the same compound?
**A.** > 16 µM

**Q.** What about the IC50 (SCLC-21H) of the same compound?
**A.** > 16 µM

**Q.** And the IC50 (SK-HEP1)?
**A.** 6.34 µM

**Q.** And the IC50 (OVCAR-3)?
**A.** > 16 µM

**Q.** And the IC50 (PC-14)?
**A.** > 16 µM

**Q.** What about the IC50 (HT-1376) of the same compound?
**A.** > 16 µM

**Q.** What about the IC50 (NCI-H2081) of the same compound?
**A.** > 16 µM

**Q.** What about the IC50 (HT1197) of the same compound?
**A.** > 16 µM

**Q.** And the IC50 (SW1088)?
**A.** > 16 µM

**Q.** And the IC50 (CAKI-1)?
**A.** > 16 µM

**Q.** What about the IC50 (NCI-H1792) of the same compound?
**A.** > 16 µM

**Q.** What about the IC50 (TCC-SUP) of the same compound?
**A.** > 16 µM

**Q.** What about the IC50 (OE33) of the same compound?
**A.** 4.97 µM

**Q.** And the IC50 (CPC-N)?
**A.** 10.3 µM

**Q.** What about the IC50 (COLO-792) of the same compound?
**A.** > 16 µM

**Q.** What about the IC50 (BT-20) of the same compound?
**A.** > 16 µM

**Q.** And the IC50 (SW626)?
**A.** > 16 µM

**Q.** And the IC50 (ARH-77)?
**A.** > 16 µM

**Q.** And the IC50 (BPH-1)?
**A.** > 16 µM

**Q.** What about the IC50 (LC4-1) of the same compound?
**A.** > 16 µM

**Q.** What about the IC50 (M14) of the same compound?
**A.** > 16 µM

**Q.** What about the IC50 (OVCAR-8) of the same compound?
**A.** 11.3 µM

**Q.** What about the IC50 (LCLC-103H cell line) of the same compound?
**A.** 3.91 µM

**Q.** And the IC50 (SCC-9)?
**A.** > 16 µM

**Q.** And the IC50 (KYSE-520 cell line)?
**A.** > 16 µM

**Q.** What about the IC50 (CAPAN-1) of the same compound?
**A.** > 16 µM

**Q.** And the IC50 (SK-LU-1)?
**A.** 3.97 µM

**Q.** What does the source list for `CN(C)C(=N)NC(=N)N` [METFORMIN]?
**A.** IC50 (AGS): 15700 µM; IC50 (Detroit 562): 16500 µM; IC50 (OAW-42): 18100 µM; IC50 (UACC-893): 9970 µM; IC50 (UO-31): > 20000 µM; IC50 (Daoy): > 20000 µM; IC50 (RPMI-7951): 9100 µM; IC50 (SK-MEL-30): > 20000 µM; IC50 (KOSC-2): 3400 µM; IC50 (NCI-H1573): 16900 µM; IC50 (HT55): > 20000 µM; IC50 (MEL-HO): 8840 µM; IC50 (D-566MG): 10800 µM; IC50 (PFSK-1): > 20000 µM; IC50 (SK-HEP1): > 20000 µM; IC50 (OVCAR-3): 17600 µM; IC50 (PC-14): 17600 µM; IC50 (HT-1376): 10400 µM; IC50 (HT1197): > 20000 µM; IC50 (SW1088): > 20000 µM; IC50 (CAKI-1): > 20000 µM; IC50 (NCI-H1792): > 20000 µM; IC50 (TCC-SUP): 4010 µM; IC50 (COLO-792): 7510 µM; IC50 (BT-20): 15300 µM; IC50 (SW626): > 20000 µM; IC50 (M14): > 20000 µM; IC50 (OVCAR-8): > 20000 µM; IC50 (LCLC-103H cell line): > 20000 µM; IC50 (SCC-9): 10200 µM; IC50 (CAPAN-1): > 20000 µM; IC50 (SK-LU-1): > 20000 µM
